Results taken from US20020197244A1, “Compositions and methods for regulating phagocytosis and ICAM-1 expression” (priority 1998, published 2002).

B1: STI: Soybean trypsin inhibitor, a serine protease inhibitor capable of affecting the PAR-2 pathway (protein, UniProt P01070 25-205, looked up)
Trypsin inhibitor A: DFVLDNEGNPLENGGTYYILSDITAFGGIRAAPTGNERCPLTVVQSRNELDKGIGTIISSPYRIRFIAEGHPLSLKFDSFAVIMLCVGIPTEWSVVEDLPEGPAVKIGENKDAMDGWFRLERVSDDEFNNYKLVFCPQQAEDDKCGDIGISIDHDDGTRRLVVSKNKPLVVQFQKLDKESL

Columns and labels:
Keratinocytes [1] = assay: F-actin staining of keratinocytes; format: cell-based; details: Compound I 10 nM, STI 0.1 mg/ml, SLIGRL 5 μM; FIG. 9
Method: Therefore, the organization of F-actin filaments following PAR-2 modulation was tested. Keratinocytes were treated with Compound I (10 nM), STI (0.1 mg/ml), or with SLIGRL (5 μM) as described in Example 1, and stained for F-actin using standard techniques.

Human keratinocytes = assay: Keratinocyte microsphere phagocytosis dose-response, image analysis; format: cell-based; details: two days; for phagocytosis with increasing concentrations: SLIGRL 0, 5 and 10M, Compound I 1 pM to 1 μM, STI 0.01 to 1 mg/ml; for % Ingestion: untreated = 100 +/− 12
Method: (§1) In this example, human primary keratinocytes or the human keratinocyte cell line HaCaT were used as in vitro model systems to study the effect of PAR-2 regulators on keratinocyte phagocytosis. The human primary keratinocytes used are commercially available from Clonetics (San Diego, Calif.). Cells were plated on chamber slides, at 2 chambers/slide and 60,000 cells/chamber. Cells were treated once daily, for two or three days, with Compound I (1μM), SLIGRL (10μM), or vehicle (Phosphate-buffered saline, (“PBS”) from Gibco-BRL (Gaithersburg, Md.). After two or three days of exposure to the test compounds, cells were exposed to Nile-red or FITC fluorescent microspheres, 1 μm in diameter, 50 microspheres/cell, for two hours at 37° C. Microspheres were from Molecular Probes (Eugene, Oreg.), and were processed according to manufacturer's instructions. Following that treatment, cells were incubated with 15% Fetal Bovine Serum (“FBS”, from Gibco-BRL), for 15 minutes at 37° C. and rinsed with PBS. At that time, chambers were separated from the slides, and the slides were covered with glycerol and coverslips. Fluorescent microscopy was performed using a Zeiss Axiovert 35 or a Nikon Optiphot-2 microscope.
Dose-response Relationship Between PAR-2 Signaling and Keratinocyte Phagocytosis Human keratinocytes were treated with increasing concentrations of SLIGRL, the PAR-2 peptide activator and agonist, at 0, 5 and 10M for two days in the same manner as set forth in Example 1. […] Human keratinocytes were also treated with increasing concentrations of Compound I and STI for two days.
Image analysis of the fluorescent beads inside the keratinocytes was used as an alternative way to quantify the phagocytic effect in this system. Empire Imagins Database Version 1.1 was used on a Gateway 2000 P5-100 computer (Media Cybernetics, Silver Springs, Md.) for capturing images. Image Pro Plus version 1.3 was used for measurements, and Microsoft Excel version 5.0 was used for data processing. Data obtained from this keratinocyte-microsphere system were in full agreement with data from the macrophage/E. coli system.

Keratinocytes [2] = assay: Melanin/melanosome uptake by keratinocytes, Fontana-Mason staining; format: cell-based; details: treated two days, melanin two hours; FIG. 5A; same results with isolated melanosomes (FIG. 5B)
Method: This example tests the ability of keratinocytes to acquire melanin or melanosomes in vitro, and thus function as a simplified system for melanosome uptake in the skin. Keratinocytes were plated in glass chamber-slides as described earlier, and were treated for two days with SLIGRL, Compound I or STI. At that time, melanin powder (from Sigma, St. Louis, Mo.) was mixed in sterile PBS at 10 μg/ml, and was added to the culture media (1:10 dilution) for two hours. Cells were then washed with PBS and stained with Fontana-Mason (“F&M”) staining. F&M stains silver nitrate-reducing molecules, thereby permitting the identification of melanins inside the keratinocytes. […] This system, therefore, can mimic melanosome transfer and melanin distribution in vivo, as skin keratinocytes use melanin as an UV-protective cap over their nuclei. […] The same results were also observed using melanosomes isolated as described in S. Orlow, et al., J.I.D. 100:55-64 (1993) (FIG. 5B).

[3] = test system: macrophage cell line IC-21; assay: Fluorescent microsphere ingestion by macrophages; format: cell-based; details: IC-21 macrophages
Method: as §1
The experiment described in Example 1 was repeated using the macrophage cell line IC-21 (obtained from the ATCC), which shares phagocytic characteristics with peritoneal macrophages. As shown for keratinocytes and fibroblasts, Compound I and STI reduced, and SLIGRL increased, the number of microspheres ingested by these macrophages which are “professional phagocytic” cells.

[4] = test system: macrophage cell line IC-21; assay: Vybrant Phagocytosis Assay Kit, fluorescein-labeled E. coli K-12 particles; format: cell-based; details: for % effect (ingestion): treated overnight, 100 nM Compound I, 5 μM SLIGRL, 0.1 mg/ml STI, untreated control = 100, one experiment of three; for phagocytosis, dose-response: STI 0, 0.01, 0.1, 1 mg/ml, Compound I 0.01, 0.1, 1 nM, FIG. 4A, 4B
Method: To better quantify the level of phagocytosis, the “Vybrant™ Phagocytosis Assay Kit” of Molecular Probes (Eugene, Oreg.) was used, following manufacturer's instructions, with modification of cell culture conditions for the IC-21 cell line. This kit uses Fluorescein-labeled E. coli K-12 particles, and is designed for quantifying the effects of drugs or other environmental factors on phagocytic functions. Macrophages were treated overnight with 100 nM of Compound I, 5 μM of SLIGRL, or 0.1 mg/ml of STI, all dissolved in PBS. The ability of the treated macrophages to ingest the fluorescent E. coli, as measured by this kit, is documented in Table 1. This experiment was repeated three times.
In order to verify the quantitative nature of the macrophage-phagocytosis assay, a dose-response experiment was performed. Macrophages were treated with 0, 0.01, 0.1 and 1 mg/ml of STI, and the experiment was performed as described in Example 3. […] Each experiment was repeated three times.

ICAM-1 = ICAM-1 immunofluorescent staining of keratinocytes; format: cell-based, human; details: vs untreated keratinocytes; FIG. 6A
Method: Intercellular adhesion molecule-1 (ICAM-1) is an inducible cell-surface glycoprotein that is implicated in cell-cell adhesion, cell membrane raffling and phagocytosis. Therefore, the effect of PAR-2 modulation on ICAM-1 was tested. Keratinocytes were grown in chamber slides and treated with SLIGRL, Compound I and STI as described, followed by immunofluorescent staining for ICAM-1 using standard procedures. Normal donkey serum, (used at 1:5 dilution), was obtained from Jackson Immunoresearch Laboratory (Westgrove, Pa.). A polyclonal goat anti-human ICAM-1 antibody, (used at 1:200 dilution), was obtained from R&D Systems (Minneapolis, Minn.), and FITC-conjugated donkey anti-goat antibody was obtained from Jackson Immunoresearch Laboratory. […] In untreated keratinocytes, ICAM-1 was localized mainly to the plasma membrane, with some staining at the nuclear membrane.

[5] = test system: human keratinocyte cell line HaCaT; assay: Fluorescent microsphere ingestion by keratinocyte cell line HaCaT; format: cell-based; details: FIG. 2
Method: In order to study the role of the PAR-2 pathway in phagocytosis, several in vitro model systems were used. One system used contained primary human keratinocytes or a human keratinocyte cell line. In this and a number of following examples, cells were treated with test compounds for different amounts of time (from one hour to three days), and samples were then incubated with fluorescent microspheres for two hours. The beads ingested by the cells were photographed using fluorescence microscopy.
as §1
The same results were also obtained when the human keratinocyte cell line HaCaT was used instead of the primary keratinocytes (see FIG. 2). SLIGRL, STI and Compound I were tested for their effect on keratinocyte phagocytosis. In these experiments, the extracellular accumulation of microspheres could be washed off. […]

| Molecule | actin filaments organization (Keratinocytes [1]) | phagocytosis with increasing concentrations (Human keratinocytes) | uptake (internalization) of melanin by keratinocytes (Keratinocytes [2]) | number of microspheres ingested [3] | % effect (ingestion) [4] | intracellular localization of ICAM-1 (ICAM-1) | microsphere ingestion [5] | phagocytosis, dose-response [4] | % Ingestion (Human keratinocytes; STI 0.01%) | % Ingestion (Human keratinocytes; STI 0.1%) | % Ingestion (Human keratinocytes; STI 1%) |
| --- | --- | --- | --- | --- | --- | --- | --- | --- | --- | --- | --- |
| CN[C@H](Cc1ccccc1)C(=O)N1CCCC1C(=O)N[C@@H](CCCNC(=N)N)C(=O)c1nc2ccccc2s1 (stereo partly drawn) [Compound I, (S)-N-Methyl-D-phenylalanyl-N-[4-[(aminoiminomethyl)amino]-1-(2-benzothiazolylcarbonyl)butyl]-L-prolinamide] | reduced the ordered organization of the cell cortex | dose-dependent decrease in phagocytosis | dramatically reduce the uptake of melanin | reduced | 89.9 +/− 13.6% | less staining was observed at the cytoplasmic membrane, and more at the nuclear membrane | reduce microsphere ingestion | – | – | – | – |
| SLIGRL [reference compound] | induced actin polymerization around the cell cortex | increased phagocytosis | dramatically increases the internalization of melanin | increased | 331.6 +/− 5.9% | increased and more diffused cytoplasmic membrane staining, and reduced nuclear membrane staining | increased microsphere ingestion | increase in phagocytosis | – | – | – |
| B1 | reduced the ordered organization of the cell cortex | dose-dependent decrease in phagocytosis | dramatically reduce the uptake of melanin | reduced | 56.06 +/− 12.4% | less staining was observed at the cytoplasmic membrane, and more at the nuclear membrane | reduce microsphere ingestion | dose-response of decreased phagocytosis | 76 +/− 15% | 55 +/− 14% | 41.6 +/− 11% |
